Biological target: PKM2 (Homo sapiens, UniProt P14618)
Experiment: PKM2 Assay
Assay type: biochemical
Conditions: activation of PKM2; Tables 1-4
Description: • PKM2 stock enzyme solution was diluted in Reaction Buffer • 2 μL of compound was added into each well first, and then 180 μL of the Reaction Mix was added. • Reaction mixture with compound (without ADP) was incubated for 30 minutes at 4° C. • Plates were re-equilibrated to room temperature prior to adding 20 μL ADP to initiate the reaction. • Reaction progress was measured as changes in absorbance at 340 nm wavelength at room temperature (25° C.) Reaction Mix:
PKM2 (50 ng/well), ADP (0.7 mM), PEP (0.15 mM), NADH (180 μM), LDH (2 units) in Reaction Buffer

Sequence of PKM2 (P14618 whole entry): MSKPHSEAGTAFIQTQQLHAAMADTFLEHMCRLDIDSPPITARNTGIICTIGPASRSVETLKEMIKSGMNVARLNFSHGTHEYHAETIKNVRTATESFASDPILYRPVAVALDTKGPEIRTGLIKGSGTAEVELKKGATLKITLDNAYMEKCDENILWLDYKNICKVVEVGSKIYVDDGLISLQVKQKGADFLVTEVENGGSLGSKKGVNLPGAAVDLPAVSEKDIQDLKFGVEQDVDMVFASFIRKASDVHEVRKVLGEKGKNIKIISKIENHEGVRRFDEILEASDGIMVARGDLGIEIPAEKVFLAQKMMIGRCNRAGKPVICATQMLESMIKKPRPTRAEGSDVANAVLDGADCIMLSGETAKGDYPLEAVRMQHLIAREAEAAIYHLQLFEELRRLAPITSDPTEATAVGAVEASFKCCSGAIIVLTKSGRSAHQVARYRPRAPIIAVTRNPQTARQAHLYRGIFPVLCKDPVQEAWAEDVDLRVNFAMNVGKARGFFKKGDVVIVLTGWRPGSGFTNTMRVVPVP

Structure (SMILES) | AC50 [nM]
CN1C(=O)OCc2ccc(S(=O)(=O)Nc3ccc(F)c(Cl)c3)cc21 | < 100
Cc1cc(NS(=O)(=O)c2ccc3c(c2)CN(C)C(=O)O3)ccc1F | 100 to 500
O=C1COc2ccc(S(=O)(=O)Nc3ccc(F)cc3)cc2N1 | > 500
O=C1COc2ccc(S(=O)(=O)Nc3ccc4c(c3)OCCO4)cc2N1 | > 500
CN1C(=O)COc2ccc(S(=O)(=O)Nc3ccc4c(c3)OCCO4)cc21 | > 500
Cc1cc(C)cc(NS(=O)(=O)c2ccc3c(c2)N(C)C(=O)CO3)c1 | < 100
CN1C(=O)COc2ccc(S(=O)(=O)Nc3ccc(F)cc3)cc21 | > 500
Cc1cc(NS(=O)(=O)c2ccc3c(c2)N(C)C(=O)CO3)ccc1F | < 100
CN1CC(=O)Oc2ccc(S(=O)(=O)Nc3cccc(Cl)c3)cc21 | < 100

Second part, the compound after the results:

AC50 [nM] | Structure (SMILES)
< 100 | Cc1cc(NS(=O)(=O)c2ccc3c(c2)N(C)C(=O)OC3)ccc1F
100 to 500 | CN1C(=O)OCc2cc(S(=O)(=O)Nc3ccc(F)c(Cl)c3)ccc21
100 to 500 | Cc1cc(NS(=O)(=O)c2ccc3c(c2)COC(=O)N3C)ccc1F
100 to 500 | CN1Cc2cc(S(=O)(=O)Nc3ccc(F)c(Cl)c3)ccc2OC1=O
> 500 | O=C1Oc2ccc(S(=O)(=O)Nc3ccc(F)c(Cl)c3)cc2CN1Cc1ccccc1
> 500 | Cc1cc(C)cc(NS(=O)(=O)c2ccc3c(c2)NC(=O)CO3)c1
> 500 | COc1ccc(NS(=O)(=O)c2ccc3c(c2)NC(=O)CO3)cc1
> 500 | COc1ccc(NS(=O)(=O)c2ccc3c(c2)N(C)C(=O)CO3)cc1
< 100 | CN1C(=O)COc2ccc(S(=O)(=O)Nc3ccc(F)c(Cl)c3)cc21
< 100 | CN1C(=O)COc2ccc(S(=O)(=O)Nc3cccc(Cl)c3)cc21
< 100 | CN1C(=O)COc2ccc(S(=O)(=O)Nc3ccc4c(c3)OCO4)cc21
< 100 | Cc1cc(NS(=O)(=O)c2ccc3c(c2)N(C)CC(=O)O3)ccc1F
< 100 | CN1CC(=O)Oc2ccc(S(=O)(=O)Nc3ccc(F)c(Cl)c3)cc21
